In ChEMBL document CHEMBL1201862, “PubChem BioAssay data set” (2004):
Calls of active or inactive are those of the source. Cut-off read from the data, not from the text of the source, for most assays here: actives have a measured EC50 and inactives only a lower limit.

How the values were obtained:
Streptococcus = test: GAS UMAA2166 growth inhibition – luminescence, BacTiterGlo, counter-screen for streptokinase expression inhibitor project, dose response (AID 1915); assay type: functional, organism-based;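 note: potency for reduction of bacterial viability or growth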
Streptokinase A = molecular target: T1, Streptokinase A (Streptococcus pyogenes serotype M1, UniProt P10520); test: viability-normalized secreted streptokinase activity reduction – plasminogen activation absorbance, OD405, dose response (AID 1914); assay type: functional, Streptococcus pyogenes M1 GAS;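 note: secreted streptokinase activity via plasminogen activation per viability signal from cell pellet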
T1 sequence (P10520 whole entry): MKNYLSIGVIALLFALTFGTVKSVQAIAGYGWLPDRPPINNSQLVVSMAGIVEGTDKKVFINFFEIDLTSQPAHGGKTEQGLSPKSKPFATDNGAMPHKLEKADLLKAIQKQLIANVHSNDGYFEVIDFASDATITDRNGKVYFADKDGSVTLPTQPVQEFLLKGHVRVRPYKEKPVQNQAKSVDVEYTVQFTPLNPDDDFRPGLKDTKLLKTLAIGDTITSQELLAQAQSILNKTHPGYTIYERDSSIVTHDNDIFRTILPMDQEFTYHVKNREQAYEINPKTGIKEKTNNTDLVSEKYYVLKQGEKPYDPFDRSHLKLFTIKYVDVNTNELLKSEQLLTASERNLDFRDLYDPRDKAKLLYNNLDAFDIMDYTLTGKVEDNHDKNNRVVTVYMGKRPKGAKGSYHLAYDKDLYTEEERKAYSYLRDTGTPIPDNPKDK

[1] = test system: Streptococcus sp. 'group A'; test: Streptococcus pyogenes SK(-)GAS viability under kanamycin – luminescence, BacTiterGlo, confirmation, counter-screen for streptokinase expression inhibitor project, dose response (AID 1900); assay type: functional, organism-based; conditions: read-out: EC50
[2] = Luminescence Cell-Based Dose Response HTS to Identify Inhibitors of 5'UTR Stem-Loop Driven Prion Protein mRNA Translation in H4 Neuroglioblastoma Cells. [Related pubchem assays: 1827 (Project Summary), 1813 (Primary HTS)]; assay type: functional
[3] = alpha-synuclein stem-loop luciferase translation blockers – H4 neuroglioma cells, luminescence, confirmation (AID 1988); assay type: functional, cell-based
[4] = luciferase reporter signal suppression in cells – H4 neuroglioma cells, luminescence, dose response (AID 1990); assay type: functional, cell-based
[5] = Luminescence Cell-Based Dose Confirmation HTS to Identify Activators of 5'UTR Stem-Loop Driven Alpha-Synuclein mRNA Translation in H4 Neuroglioblastoma Cells. [Related pubchem assays: 1829 (Project Summary), 1814 (Primary HTS)]; assay type: functional
[6] = Luminescence Cell-Based Dose Response HTS to Identify Activators of Luciferase Translation or Activity in H4 […] Cells. [Related pubchem assays: 1829 (Project Summary), 1814 (Primary HTS)]; assay type: functional
H4 = test: Luminescence Cell-Based Dose Response HTS to Identify Activators of 5'UTR Stem-Loop Driven Prion Protein mRNA Translation in H4 Neuroglioblastoma Cells. [Related pubchem assays: 1829 (Project Summary), 1814 (Primary HTS)]; assay type: functional; conditions: Homo sapiens
INS1 = test: INS-1E survival protection against cytokine death – cell-based, luminescence, retest, dose response (AID 449756); assay type: functional; conditions: Rattus norvegicus;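 note: cell death triggered by IL-1 beta plus TNF-alpha plus IFN-gamma mixture; protective hits raise ATP signal compared with cytokine alone wells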
[7] = viability of uninfected HEp-2 cells – cell-based, HTS, cytotoxicity control for RSV inhibitor project, dose response (AID 2410); assay type: functional; conditions: human respiratory syncytial virus
Paired box protein Pax-8 = Paired box protein Pax-8 (Homo sapiens, UniProt Q06710); test: PAX8 transcriptional activity inhibition in RMG-I – RMG-I cells, luciferase, cherry-pick, dose response (AID 687027); assay type: functional, cell-based;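 note: luciferase reporter driven by Pax8 target thyroperoxidase promoter measured by SteadyGlo luminescence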
Sequence of Paired box protein Pax-8 (Q06710 whole entry): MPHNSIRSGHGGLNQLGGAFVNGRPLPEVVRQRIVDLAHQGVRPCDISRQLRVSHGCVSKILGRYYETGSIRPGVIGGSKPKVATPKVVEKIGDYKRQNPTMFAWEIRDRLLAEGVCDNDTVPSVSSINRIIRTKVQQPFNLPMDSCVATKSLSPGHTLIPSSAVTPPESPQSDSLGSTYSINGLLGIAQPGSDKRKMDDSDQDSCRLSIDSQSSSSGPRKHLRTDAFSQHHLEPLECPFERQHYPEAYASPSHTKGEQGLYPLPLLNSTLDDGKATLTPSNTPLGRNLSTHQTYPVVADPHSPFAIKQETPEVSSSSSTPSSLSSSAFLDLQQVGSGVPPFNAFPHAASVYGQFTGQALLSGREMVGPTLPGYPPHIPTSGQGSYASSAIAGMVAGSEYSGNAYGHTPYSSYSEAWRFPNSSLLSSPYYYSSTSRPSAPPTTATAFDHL

Cytochrome P450 2C9 = Cytochrome P450 2C9 (Homo sapiens, UniProt P11712)
Sequence of Cytochrome P450 2C9 (P11712 whole entry): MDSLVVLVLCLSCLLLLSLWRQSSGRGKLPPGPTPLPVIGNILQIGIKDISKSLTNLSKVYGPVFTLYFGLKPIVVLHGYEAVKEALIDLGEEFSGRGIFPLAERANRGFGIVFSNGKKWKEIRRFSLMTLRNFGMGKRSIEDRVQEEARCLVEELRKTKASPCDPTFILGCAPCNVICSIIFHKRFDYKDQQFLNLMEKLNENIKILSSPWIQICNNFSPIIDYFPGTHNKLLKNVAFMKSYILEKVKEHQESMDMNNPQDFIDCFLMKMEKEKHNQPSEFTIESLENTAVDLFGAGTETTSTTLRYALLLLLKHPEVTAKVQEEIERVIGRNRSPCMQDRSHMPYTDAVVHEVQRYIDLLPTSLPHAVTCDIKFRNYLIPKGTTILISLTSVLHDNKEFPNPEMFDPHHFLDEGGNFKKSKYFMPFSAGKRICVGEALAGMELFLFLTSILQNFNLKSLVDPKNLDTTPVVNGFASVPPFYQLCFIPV

[8] = Luminescence Cell-Based Dose Retest to Confirm Inhibitors of Cancer Stem Cells. [Related pubchem assays (depositor defined):AID2717, AID2721]; assay type: functional, Homo sapiens; conditions: Homo sapiens
[9] = molecular target: T2, Rac GTPase-activating protein 1 (Homo sapiens, UniProt Q9H0H5); test: blockers of MgcRacGAP-driven Rac1 GTP hydrolysis – biochemical, ADP Hunter fluorescence, primary and confirmatory, confirmation (AID 624330); assay type: functional
T2 sequence (Q9H0H5 whole entry): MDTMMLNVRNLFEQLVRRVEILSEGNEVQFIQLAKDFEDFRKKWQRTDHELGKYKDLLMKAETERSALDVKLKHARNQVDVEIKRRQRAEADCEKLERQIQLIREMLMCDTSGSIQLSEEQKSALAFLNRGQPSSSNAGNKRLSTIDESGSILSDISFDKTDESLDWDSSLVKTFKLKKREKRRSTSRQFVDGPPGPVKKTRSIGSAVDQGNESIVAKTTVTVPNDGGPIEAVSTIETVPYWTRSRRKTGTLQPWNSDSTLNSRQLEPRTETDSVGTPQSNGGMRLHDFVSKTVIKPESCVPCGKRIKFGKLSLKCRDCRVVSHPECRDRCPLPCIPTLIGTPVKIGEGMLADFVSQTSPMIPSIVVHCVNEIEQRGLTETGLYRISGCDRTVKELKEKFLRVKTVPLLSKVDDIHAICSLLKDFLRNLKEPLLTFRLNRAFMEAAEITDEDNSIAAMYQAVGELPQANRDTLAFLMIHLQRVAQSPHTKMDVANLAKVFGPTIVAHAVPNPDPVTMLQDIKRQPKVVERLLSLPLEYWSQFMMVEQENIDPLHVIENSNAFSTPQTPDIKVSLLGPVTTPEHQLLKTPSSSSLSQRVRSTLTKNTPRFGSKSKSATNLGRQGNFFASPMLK

SMILES | EC50 [5] | EC50 [6] | EC50 (H4) | also measured
CCc1ccc(CN(C)Cc2nc(-c3cccc(Cl)c3)no2)nc1 |  |  |  | EC50 (Streptococcus): > 150 µM (not active); EC50 (Streptokinase A): > 150 µM (not active); EC50 [1]: 18.4 µM (active)
COc1ccc(-c2csc(NC(=O)c3ccc(C(C)(C)C)cc3)c2C(=O)O)cc1 |  |  |  | EC50 [2]: 4.3 µM (active); EC50 (Streptococcus): 7.24 µM (active); EC50 (Streptokinase A): 3.12 µM (inconclusive); EC50 [3]: 11.5 µM (active); EC50 [1]: 1.75 µM (active); EC50 [4]: 14.5 µM (active)
Cc1ccc(-c2cn(-c3ccccc3)c(SCC(=O)NC3CCS(=O)(=O)C3)n2)cc1C (stereo unspecified) | 1.36 µM (active) | 8.74 µM (active) | 0.301 µM (active) | 
Cc1cccc(Nc2nc(N)nc(CN3CCN(c4ccccc4F)CC3)n2)c1 |  |  |  | EC50 (Streptococcus): 45.8 µM (active); EC50 (Streptokinase A): > 150 µM (not active); EC50 [1]: 7.31 µM (active)
O=C(Nc1ccc(N2CCN(C(=O)c3ccc(Cl)cc3)CC2)cc1)c1cccnc1 |  |  |  | AC50 (INS1): 5.43 µM (active)
Nc1cc(-c2ccc(Br)cc2)nn1S(=O)(=O)c1cccc2nsnc12 |  |  |  | CC50 [7]: 11.2 µM (active)
CC(C)(C)c1ccc(C(=O)N2CCN(C(=O)c3ccco3)CC2)cc1 |  |  |  | EC50 (Streptococcus): > 150 µM (not active); EC50 (Streptokinase A): > 150 µM (not active); EC50 [1]: > 150 µM (not active)
O=C(c1cc2ccccn2n1)N1CCN(Cc2ccccc2)CC1 | 6.68 µM (active) | 24.1 µM (active) | 9.44 µM (active) | 
Cc1cc2c(cc1C)CSC(c1ccccc1OC(=O)C(C)(C)C)SC2 |  |  |  | CC50 [7]: 16.8 µM (active)
COCC1CCN(C(=O)c2ccc3oc(Cc4ccccc4)nc3c2)C1 (stereo unspecified) |  |  |  | EC50 (Streptococcus): > 150 µM (not active); EC50 (Streptokinase A): > 150 µM (not active); EC50 [1]: > 150 µM (not active)
O=[N+]([O-])c1cc(S(=O)(=O)/N=C(/c2ccccc2)N2CCOCC2)ccc1Cl | 0.714 µM (active) | 14.6 µM (active) |  | 
COc1ccc(Oc2nc(-c3ccccn3)nc3ccccc23)cc1 |  |  |  | EC50 (Streptococcus): > 150 µM (not active); EC50 (Streptokinase A): > 150 µM (not active); EC50 [1]: 17.1 µM (active)
COC1C(CO)OC(n2c3c(Cl)cccc3c3c4c(c5c6cccc(Cl)c6[nH]c5c32)C(=O)NC4=O)C(O)C1O (stereo unspecified) |  |  |  | AC50 (Paired box protein Pax-8): 1.11 µM (active)
c1ccc(Cn2c(-c3ccco3)nc3nc4ccccc4nc32)cc1 | 11.6 µM (active) | 0.127 µM (inconclusive) | > 120 µM (not active) | 
Cc1cc(C)c([N+](=O)[O-])cc1-c1ccc(/C=N/NC(=O)c2nonc2N)o1 |  |  |  | CC50 [7]: > 50 µM (active)
COc1ccccc1NC(=O)Cn1c(CN2CCCCC2)nc2ccccc2c1=O | > 120 µM (not active) | > 120 µM (not active) | 37.8 µM (active) | 
Cc1cnc(NC(=O)CCc2ccccc2)s1 | > 120 µM (not active) | 16.6 µM (active) | 15.2 µM (active) | 
Cc1ccc(C(=O)NCCC(=O)N2CCCC2)cc1 | 0.419 µM (active) | 5.97 µM (active) | > 120 µM (not active) | 
CC(=O)Nc1cccc(-n2nnc(SCC(=O)c3ccccc3)n2)c1 | 10.5 µM (active) | 19.8 µM (active) | 2.02 µM (active) | 
O=C(Nc1cccc(-c2cccc(Cl)c2)c1)C1CCN(Cc2ccc(CO)o2)CC1 |  |  |  | CC50 [7]: 12.7 µM (active)
CC(C)c1ccc(C(=O)CC2(O)C(=O)N(CN3CCOCC3)c3ccccc32)cc1 (stereo unspecified) |  |  |  | AC50 (Cytochrome P450 2C9): 12.6 µM (inconclusive)

SMILES | EC50 [5] | EC50 [6] | EC50 (H4) | also measured
O=C(NCc1cccnc1)c1ccc([N+](=O)[O-])cc1 |  |  |  | AC50 (INS1): 3.6 µM (active)
Cc1ccc(F)c([C@H]2C3C=CCC(c4ccccc4)C3C(=O)N2Cc2ccccc2)c1 (stereo partly specified) |  |  |  | AC50 (INS1): 11 µM (active); AC50 [8]: 3.71 µM (active)
O=c1cc(Cl)[nH]c(=O)n1CCNc1ncc(C(F)(F)F)cc1Cl | 12.6 µM (active) | 5.68 µM (active) | 7.52 µM (active) | 
O=C(CSc1nc(O)c2cnn(-c3ccccc3)c2n1)N1N=C(c2cccs2)CC1c1ccc(F)cc1 (stereo unspecified) |  |  |  | EC50 (Streptococcus): 7.18 µM (active); EC50 (Streptokinase A): > 150 µM (not active); EC50 [1]: 3.15 µM (active)
CN1C(=O)C(=Cc2c(OCc3cnc(Cl)s3)ccc3ccccc23)C(=O)N(C)C1=O |  |  |  | CC50 [7]: 20.3 µM (active)
Cc1ccc2nc3ccc(N4CCCC4)nn3c(=O)c2c1 | 0.723 µM (active) | 0.558 µM (active) | > 120 µM (not active) | 
O=C(NCCSc1ccccc1)c1ccco1 |  | > 120 µM (not active) | 15 µM (active) | 
COc1ccc(-c2cc(C(F)F)n3ncc(C(=O)N4CCc5ccccc5C4)c3n2)cc1 |  |  |  | CC50 [7]: 28.3 µM (active)
C[C@@H]1CCCCO[C@H](CN(C)S(=O)(=O)c2ccc(Cl)cc2)[C@H](C)CN([C@@H](C)CO)C(=O)c2cc(N(C)C)ccc2O1 |  |  |  | AC50 (Paired box protein Pax-8): 8.81 µM (active)
CSc1ccc(C2c3[nH]c4ccccc4c3CCN2C(=O)c2cc(C)n(C)n2)cc1 (stereo unspecified) | 14.2 µM (active) | 17.1 µM (active) | 11.8 µM (active) | 
CCc1cc2c(=O)c(-c3ccc4c(c3)OCCO4)coc2cc1OC(=O)c1ccco1 |  |  |  | CC50 [7]: 29.9 µM (active)
CCN(CC)c1ccc(/C=N/N2CCOCC2)c(O)c1 |  | 4.58 µM (active) | 20 µM (active) | IC50 [9]: 75.6 µM (active)
O=C(N/N=C/c1cc(Br)cs1)c1ccc2c(c1)OCCO2 | 0.106 µM (active) |  | > 120 µM (not active) | 
Cc1cc(C)c(C2C3=C(Nc4c2c(C)nn4-c2ccccn2)c2ccccc2C3=O)c(C)c1 (stereo unspecified) |  |  |  | EC50 [2]: > 120 µM (not active); EC50 (Streptococcus): 128 µM (active); EC50 (Streptokinase A): 22.2 µM (active); EC50 [3]: 19.9 µM (active); EC50 [1]: 7.61 µM (active); EC50 [4]: 17 µM (active)
Nc1nc2nc[nH]c2c(=S)[nH]1 [THIOGUANINE] |  |  |  | AC50 (Paired box protein Pax-8): 1.18 µM (active)
C[C@@H]1CCCCO[C@H](CN(C)Cc2ccc(C(F)(F)F)cc2)[C@H](C)CN([C@H](C)CO)C(=O)c2cc(NC(=O)Nc3ccc(F)cc3)ccc2O1 |  |  |  | AC50 (Paired box protein Pax-8): 10.7 µM (active)
O=C(CSc1ncnc2sc3c(c12)CCCC3)c1ccccc1 | 11.6 µM (active) | 9.61 µM (active) | 28.8 µM (active) | 
CC1CCN(C(C(=O)NC2CCCCC2)c2cc3c(cc2[N+](=O)[O-])OCO3)CC1 (stereo unspecified) | > 120 µM (not active) | 25 µM (active) | 22.1 µM (active) | 
CCCn1c(=N)c(C(=O)NC2CCCC2)cc2c(=O)n3cccc(C)c3nc21 | > 120 µM (not active) | > 120 µM (not active) | > 120 µM (not active) | 
COc1cccc(-c2nc(-c3ccc4c(c3)NC(=O)CO4)cs2)c1 | 17.7 µM (active) | 22.7 µM (active) | 10.8 µM (active) | 
Nc1ccc(C(=O)c2ccc3c(c2)OCCO3)cc1N | 9.68 µM (active) | 8.7 µM (active) | 21.2 µM (active) | IC50 [9]: 22.9 µM (active)
